The text below walks through data of paper PMC6270234, “Chemical Composition of Aspidosperma ulei Markgr. and Antiplasmodial Activity of Selected Indole Alkaloids” (Molecules, 2013).

Structures are written as SMILES. Where “and” joins values, the source holds several entries; their conditions need not be identical. Identical values can stand only once. Entries after “also recorded” stand apart in the source; their conditions may differ. Like-named read-outs stand apart in the source and are kept apart here.

Data set [1] deals with multi-drug resistant K1 strain of Plasmodium falciparum. The data set is described as follows: In vitro antiplasmodial assay, inhibition of growth of parasites by optical microscopy. To be noted: for IC50: Plasmodium falciparum, K1, 48 h, read-out: IC50 ± SD; for Result: activity class from IC50 in µM, K1 strain. It counts as cell-based. How it is done: The in vitro antiplasmodial test was performed as previously described. […] Sample solutions were applied to the wells of 96-well test plates containing red blood cell suspension having initial parasitemia of 1.5%. […] After incubation, the contents of the wells were evaluated by optical microscopy. The inhibition of the growth of parasites (IGP%) was evaluated as a percentage by comparison with controls:
IGP% = 100 × [1 – (parasitemia with sample/parasitemia of untreated controls)]

Data set [2] concerns NIH3T3 murine fibroblasts. The experiment in a line: Cytotoxicity test using the Alamar Blue assay. Format: cell-based. The note with it: Mus musculus, 48 h, tested at 50 µg/mL, read-out: IC50 (toxicity to fibroblasts). How it is done: The NHI-3T3 cell line of mouse fibroblasts was grown in DMEN medium supplemented with 10% fetal bovine serum, 2 mM glutamine, 100 µg/mL streptomycin and 100 U/mL penicillin, and incubated at 37 °C with a 5% atmosphere of CO2. For assays, the cells were plated in 96-well plates (10^4 cells per well) and the Alamar Blue^TM assay was performed using previously described procedures. Briefly, after 24 h, the compounds were dissolved in DMSO and added to each well to give final concentrations of 50 µg/mL. Plates were incubated for 48 h. Control groups had final well concentrations of 0.1% DMSO. Two hours before the end of the incubations, 10 µL of Alamar Blue^TM was added to each well. The fluorescent signal was monitored with a multiplate reader using 530–560 nm excitation and 590 nm emission wavelengths.

The subject of data set [3] is chloroquine-resistant Fc M29-Cameroon strain of Plasmodium falciparum. More on the design: method as in PMID 21612900. To be noted: cited from earlier work.
The subject of the next data set is Plasmodium berghei. Set-up: method as in PMID 23092722. To be noted: Plasmodium berghei-infected mice, daily doses of 50-100 mg/kg/day, 4-day suppressive test; cited from earlier work.
The test system of data set [4] is K1 strain of P. falciparum. Set-up: method as in PMID 17568942, PMID 23092722. To be noted: cited from earlier work.
The conditions of data set [5]: cited from earlier work.
The mark [6] stands for this setting: P. falciparum K1 strain, 48 h incubation.

Broadly, the IC50 is the concentration that inhibits the measured activity by half. In general, melting point refers to the temperature, or range, at which the solid turns liquid. `COC(=O)[C@@H]1[C@H]2Cc3c4[nH]c5ccccc5c4cc[n+]3C[C@@H]2CC[C@H]1O` [Compound 3, 3,4,5,6-tetradehydro-β-yohimbine]: the melting point lay in the range of 260 to 264 °C. Also, the concentration for half-maximal inhibition (IC50) in data set [1] (setting [6]) is 39.9 ± 7.7 µM. Also, the Result result in data set [1] was “I (IC50 > 20.0 µM = inactive (I))”. The IC50 in data set [2] is more than 50 µg/mL.
Take `C=C[C@H]1C[N@@]2CC[C@H]1C[C@H]2[C@H](O)c1ccnc2ccc(OC)cc12` [quinine sulphate, reference compound]: the IC50 in data set [1] (setting [6]) was 0.12 µg/mL and 300 nM.
As for `CC(=O)N1c2c(O)cccc2C23CC[N+]4=C2C(CC(=O)O)(CCC4)CCC13` (stereo not shown) [Compound 13, 12-hydroxy-N-acetyl-21(N)-dehydroplumeran-18-oic acid], the 50% inhibitory concentration (IC50) in data set [1] (setting [6]) was more than 135 µM; in data set [2], more than 50 µg/mL. Further, in data set [1], the Result result was “I (IC50 > 20.0 µM = inactive (I))”.
On the same counts, the results for `C/C=C1\CN2CCc3c([nH]c4ccccc34)CC1CC2` (stereo not shown) [Compound 12, 20(E)-nor-subincanadine E] are 54.3 ± 10.5 µM, more than 50 µg/mL and “I (IC50 > 20.0 µM = inactive (I))”.
Consider `COC(=O)[C@@H]1[C@H]2C[C@H]3c4[nH]c5ccccc5c4CCN3C[C@@H]2CC[C@@H]1O` [Compound 6, yohimbine], for which, in data set [3], the IC50 is more than 1 µg/mL.
Turning to `Cc1nccc2c(C)c3[nH]c4ccccc4c3cc12` [Compound 8, olivacine], the “in vivo antimalarial activity (in words)” value in the data set with Plasmodium berghei is recorded as “high in vivo antimalarial activity”. Besides, in data set [4], the “in vitro antiplasmodial activity (in words)” value is on record as “significant in vitro antiplasmodial activity”. Besides, the “cytotoxicity (in words)” value in data set [5] is “low cytotoxicity”.
Regarding `COC(=O)[C@@H]1[C@H]2CC3c4[nH]c5ccccc5c4CCN3C[C@@H]2CC[C@H]1O` (stereo partly drawn) [Compound 5, β-yohimbine], the IC50 in data set [3] is more than 1 µg/mL.
`CC=C1C[N+]23CCC1CC21Nc2ccccc2C1(O)CC3` (stereo not shown) [Compound 4, 19E-hunteracine] gave a melting point of 343 to 343.3 °C. Besides, the IC50 in data set [1] (setting [6]) was more than 176 µM. The Result entry in data set [1] is “I (IC50 > 20.0 µM = inactive (I))”. The IC50 in data set [2] is more than 50 µg/mL.
Turning to `CCC1C2CCN(C)C1c1c([nH]c3ccccc13)C2=O` (stereo not drawn) [Compound 11, 20-epi-dasycarpidone], the melting point is 164.3 to 165.3 °C. Further, the “in vitro antiplasmodial activity (in words)” value in data set [1] (P. falciparum K1 strain) is listed as “active; also recorded: moderate inhibitory activity”. For the same compound, in data set [1] (setting [6]), the IC50 is 4.5 µg/mL and 16.7 µM. The Result result in data set [1] is given as “MA (IC50 5–20 µM = moderately active (MA))”. Further, the IC50 in data set [2] was more than 50 µg/mL.
For the compound `CC[C@@]12CCCN3CC[C@]4(c5ccc(OC)c(O)c5N(C(C)=O)[C@@H]4CC1)[C@H]32` [aspidocarpine], the “in vitro antiplasmodial activity (in words)” value in data set [4] is listed as “significant in vitro antiplasmodial activity”.
In the case of `CCN(CC)CCCC(C)Nc1ccnc2cc(Cl)ccc12` (stereo not shown) [chloroquine diphosphate, reference compound], in data set [1], the IC50 is 0.17 µg/mL and 330 nM; the Result result is given as “A (0.1 < IC50 < 5 µM = active (A))”.
On to `Cc1c2ccncc2c(C)c2c1[nH]c1ccccc12` [ellipticine, reference compound], for which the “in vivo antimalarial activity (in words)” value with Plasmodium berghei is reported as “high in vivo antimalarial activity”. The “in vitro antiplasmodial activity (in words)” value in data set [4] is “significant in vitro antiplasmodial activity”. Further, the “cytotoxicity (in words)” value in data set [5] is “low cytotoxicity”.
